{"source": "patent US6423541B1", "about": "“Process for in vitro selection of high methol producing genotypes” (Council of Scientific&Industrial Reaearch, priority 2000, dated 2002)", "tested_on": "callus mediated regenerants of Mentha arvensis cv. Himalaya", "test": "Survival of callus mediated regenerants from internodal explants at different concentrations of menthol", "assay_type": "cell-based", "conditions": "for Survival after 24 hours Number / Survival after 7 days Number: 20 shoots tested per replication", "text": "The Applicants selected the improved plant variety cv. Himalaya (U.S. Pat. PP 10,935: Kumar et al 1999) of Mentha arvensis L. as the base material for further improvement and selection. This variety is a hybrid between variety Gomti and Kalka and bears the high proliferating habit of Gomti and high menthol content, disease tolerant characters of Kalka. The explant material was collected from the field grown plants and surface sterilized by washing sequentially with 2% detergent, distilled water containing a few drops of Savlon (Johnson and Johnson, India), 0.1% acidified mercurie chloride and autoclaved distilled water before inoculation. About 1 cm long internode pieces were inoculated in the MS medium (Murashige and Skoog 1962) containing 0.2 μg ml^−1 concentrations of the auxin 2,4 dichlorophenoxyacetic acid (2,4-D) and 7 μg ml^−1 of the cytokinin 6-(γγ′- dimethylallyl amino) purine (2iP or 2aP) (Khanuja et al. 1998). This procedure has been highly efficient in generating variation in cultures of mints with greater frequencies. The cultures were grown at 25±2° C. and 400 to 600 lux light intensity with 16-h photoperiod. The regenerated shoots were separated 12 weeks latter the explant inoculation for rooting and/or screening.\nThe regenerated shoots (3-4 cm long, containing the apical bud and 2-3 nodes) separated from the 2,4D/2iP medium, were inoculated into MS basal medium containing vitamins, 100 mg l^−1 myo-inositol, 3% wv^−1 sucrose, 1.5% wv^−1 agar (Difco), with or without menthol (0 to 100 μg ml^−1, concentration stepped up by 10 μg serially in each treatment). On each kind of these media, 5 independent regenerated shoots were inoculated per flask; 4 flasks were inoculated per replication and each treatment was replicated 5 times, making the number of flasks to 20 and number of explants to 100 for each concentration of menthol. Like the earlier experiment this experiment was also conducted in the completely randomised design (CRD) fashion. Cultures were incubated and maintained at 25±2° C. and 400-600 lux light intensity with 16 hour photoperiod. The nature of initial responses in explants was recorded every 24 hours over a period of one week.", "data": [{"compound": "CC1CCC(C(C)C)C(O)C1", "note": "(stereo not shown) [menthol]", "values": [{"measurement": "shoot survival", "setting": "at and above 80 μg ml^−1 menthol, after 7th day", "result": "No shoots were able to survive"}, {"measurement": "Survival after 24 hours %", "setting": "menthol 10 μg ml^−1", "result": 100, "unit": "%"}, {"measurement": "Survival after 7 days %", "setting": "menthol 10 μg ml^−1", "result": 100, "unit": "%"}, {"measurement": "Survival after 24 hours Number", "setting": "menthol 10 μg ml^−1", "result": "20.0 ± 0.00"}, {"measurement": "Survival after 7 days Number", "setting": "menthol 10 μg ml^−1", "result": "20.0 ± 0.00"}, {"measurement": "Survival after 24 hours %", "setting": "menthol 20 μg ml^−1", "result": 100, "unit": "%"}, {"measurement": "Survival after 7 days %", "setting": "menthol 20 μg ml^−1", "result": 100, "unit": "%"}, {"measurement": "Survival after 24 hours Number", "setting": "menthol 20 μg ml^−1", "result": "20.0 ± 0.00"}, {"measurement": "Survival after 7 days Number", "setting": "menthol 20 μg ml^−1", "result": "20.0 ± 0.00"}, {"measurement": "Survival after 24 hours %", "setting": "menthol 30 μg ml^−1", "result": 100, "unit": "%"}, {"measurement": "Survival after 7 days %", "setting": "menthol 30 μg ml^−1", "result": 100, "unit": "%"}, {"measurement": "Survival after 24 hours Number", "setting": "menthol 30 μg ml^−1", "result": "20.0 ± 0.00"}, {"measurement": "Survival after 7 days Number", "setting": "menthol 30 μg ml^−1", "result": "20.0 ± 0.00"}, {"measurement": "Survival after 24 hours %", "setting": "menthol 40 μg ml^−1", "result": 100, "unit": "%"}, {"measurement": "Survival after 7 days %", "setting": "menthol 40 μg ml^−1", "result": 88, "unit": "%"}, {"measurement": "Survival after 24 hours Number", "setting": "menthol 40 μg ml^−1", "result": "20.0 ± 0.00"}, {"measurement": "Survival after 7 days Number", "setting": "menthol 40 μg ml^−1", "result": "17.6 ± 0.66"}, {"measurement": "Survival after 24 hours %", "setting": "menthol 50 μg ml^−1", "result": 85, "unit": "%"}, {"measurement": "Survival after 7 days %", "setting": "menthol 50 μg ml^−1", "result": 45, "unit": "%"}, {"measurement": "Survival after 24 hours Number", "setting": "menthol 50 μg ml^−1", "result": "17.0 ± 0.91"}, {"measurement": "Survival after 7 days Number", "setting": "menthol 50 μg ml^−1", "result": "9.0 ± 0.41"}, {"measurement": "Survival after 24 hours %", "setting": "menthol 60 μg ml^−1", "result": 70, "unit": "%"}, {"measurement": "Survival after 7 days %", "setting": "menthol 60 μg ml^−1", "result": 10, "unit": "%"}, {"measurement": "Survival after 24 hours Number", "setting": "menthol 60 μg ml^−1", "result": "14.0 ± 0.58"}, {"measurement": "Survival after 7 days Number", "setting": "menthol 60 μg ml^−1", "result": "2.0 ± 0.41"}, {"measurement": "Survival after 24 hours %", "setting": "menthol 70 μg ml^−1", "result": 45, "unit": "%"}, {"measurement": "Survival after 7 days %", "setting": "menthol 70 μg ml^−1", "result": 1, "unit": "%"}, {"measurement": "Survival after 24 hours Number", "setting": "menthol 70 μg ml^−1", "result": "9.0 ± 0.91"}, {"measurement": "Survival after 7 days Number", "setting": "menthol 70 μg ml^−1", "result": "0.2 ± 0.26"}, {"measurement": "shoot survival", "setting": "menthol 70 μg ml^−1, within 24 hours of inoculation", "result": "about 45%"}, {"measurement": "death of shoots", "setting": "menthol 70 μg ml^−1, within 7 days after inoculation", "result": "~99", "unit": "%"}, {"measurement": "Survival after 24 hours %", "setting": "menthol 80 μg ml^−1", "result": 20, "unit": "%"}, {"measurement": "Survival after 7 days %", "setting": "menthol 80 μg ml^−1", "result": 0, "unit": "%"}, {"measurement": "Survival after 24 hours Number", "setting": "menthol 80 μg ml^−1", "result": "4.0 ± 0.58"}, {"measurement": "Survival after 7 days Number", "setting": "menthol 80 μg ml^−1", "result": "0.0 ± 0.00"}, {"measurement": "Survival after 24 hours %", "setting": "menthol 90 μg ml^−1", "result": 10, "unit": "%"}, {"measurement": "Survival after 7 days %", "setting": "menthol 90 μg ml^−1", "result": 0, "unit": "%"}, {"measurement": "Survival after 24 hours Number", "setting": "menthol 90 μg ml^−1", "result": "2.0 ± 0.40"}, {"measurement": "Survival after 7 days Number", "setting": "menthol 90 μg ml^−1", "result": "0.0 ± 0.00"}, {"measurement": "Survival after 24 hours %", "setting": "menthol 100 μg ml^−1", "result": 0, "unit": "%"}, {"measurement": "Survival after 7 days %", "setting": "menthol 100 μg ml^−1", "result": 0, "unit": "%"}, {"measurement": "Survival after 24 hours Number", "setting": "menthol 100 μg ml^−1", "result": "0.0 ± 0.00"}, {"measurement": "Survival after 7 days Number", "setting": "menthol 100 μg ml^−1", "result": "0.0 ± 0.00"}]}]}
